Like-named read-outs stand apart in the source and are kept apart here.
Assays:
Set-up in all cases: species or system SD rats
adrenergic α1 receptor = adrenergic α1 receptor binding test ([3H] Prazosin Binding Test); conditions: 1 nM [3H] Prazosin, rat cortex, room temperature, 60 minutes
Description: (§1) The compounds of the present invention were subjected to each of serotonin S2 receptor binding test, dopamine D2 receptor binding test and adrenergic α1 receptor binding test.
(§2) The following reagents were used in this test.
(§3) These reagents and samples were each dissolved in 10% ethanol before use. Among them, water-insoluble compounds were each dissolved in ethanol and the obtained solution was diluted with distilled water to an ethanol concentration of 10%. Further, Methylsergide maleate was used in a state dissolved in distilled water.
(§4) SD rats aged 6 to 8 weeks were used.
(§5) SD rats were each slaughtered with a guillotine to extirpate its cerebrum. The cortex and corpus striatum were separated from the cerebrum. The former was used in serotonin S2 receptor binding test and adrenergic α1, receptor binding test, while the latter was used in dopamine D2 receptor binding test.
(§6) The cortex was homogenized in a 0.32 M sucrose solution in an amount ten times the wet weight of the cortex by the use of a teflon glass homogenizer and the resulting mixture was centrifuged at 10,000×G for 20 minutes. The obtained sediment was suspended in 50 mM Tris hydrochloride (pH 7.4) in an amount ten times the initial wet weight of the cortex by the use of a histocothrom, and the obtained suspension was centrifuged at 10,000×G for 20 minutes. This operation was repeated twice. The obtained sediment was suspended in 50 mM Tris hydrochloride (pH 7.4) in an amount 20 times the initial wet weight of the cortex by the use of a histocothrom. The suspension thus prepared was used as a receptor fraction. This receptor fraction was stored at -80° C. until use.
(§7) Each IC50 value was calculated by the probit method and each Ki value was determined by the following formula: [formula]
(§8) In the above formula, C represents the concentration of radioligand, and Kd represents the affinity of radioligand for the receptor as determined by the Scatchard analysis.
6. [^3 H] Prazosin Binding Test
(§9) This test was conducted in the same manner as that of the binding test of [^3 H] Ketanserin except that the receptor fraction prepared from the cortex was molten and suspended with a histocothrom, and the obtained suspension was incubated together with 1 nM-[^3 H] Prazosin at room temperature for 60 minutes and that the binding detected in the presence of 10 μl of Phentolamine was regarded as nonspecific binding.

dopamine D2 receptor = target: T1, dopamine D2 receptor (Rattus norvegicus, UniProt P61169); experiment: dopamine D2 receptor binding test ([3H] Spiperone Binding Test); conditions: 1 nM [3H] Spiperone, rat corpus striatum, room temperature, 60 minutes
T1 construct: the receptor fraction prepared from the corpus striatum was molten and suspended; from tissue; host or cells: corpus striatum of SD rats (membrane fraction)
Description: as §1, §2, §3, §4, §5
On the other hand, the corpus striatum was homogenized in a 0.32 M sucrose solution in an amount ten times the wet weight of the corpus striatum by the use of a teflon glass homogenizer and the obtained mixture was centrifuged at 1,000×G for 20 minutes. The obtained supernatant was centrifuged at 10,000×G for 20 minutes. The obtained sediments were suspended together in 50 mM Tris hydrochloride (pH 7.4) in an amount ten times the initial wet weight of the corpus striatum by the use of a histocothrom, and the obtained suspension was centrifuged at 10,000×G for 20 minutes. This operation was repeated thrice. The resulting sediment was suspended in 50 mM Krebs-Tris (pH 7.4) in an amount 100 times the initial wet weight of the corpus striatum by the use of a histocothrom. The obtained suspension was used as a receptor fraction. This receptor fraction was stored at -80° C. until use.
as §7, §8
5. [^3 H] Spiperone Binding Test
as §9, with “corpus striatum” for “cortex”, “H], Spiperone” for “H] Prazosin”, “Spiperone” for “Phentolamine”

serotonin S2 receptor = target: T2, serotonin S2 receptor (Rattus norvegicus, UniProt P14842); experiment: serotonin S2 receptor binding test ([3H] Ketanserin Binding Test); conditions: 1 nM [3H] Ketanserin, rat cortex, 37° C., 15 minutes
T2 construct: The receptor fraction prepared from the cortex was molten and suspended; from tissue; host or cells: cerebral cortex of SD rats (membrane fraction)
Description: as §1, §2, §3, §4, §5, §6
4. [^3 ] Ketanserin Binding Test
The receptor fraction prepared from the cortex was molten and suspended by the use of a histocothrom. The resulting suspension was incubated together with 1 nM-[^3 H] Ketanserin at 37° C. for 15 minutes. The resulting reaction system was filtered through a Whatman GF/B glass filter with an MR-30R type cell harvester mfd. by Blandel. The resulting filter was washed twice with 5 ml of 50 mM Tris hydrochloride (ph 7.4) cooled with ice and the radioactivity of the Ketanserin bound the receptor was determined by the use of a liquid scintillation counter with 5 ml of ACS II. The binding detected in the presence of […] of Methylsergide was regarded as nonspecific binding.
as §7, §8

[1] = read-out: Ki value, dopamine D2 receptor

T2 sequence (P14842 whole entry): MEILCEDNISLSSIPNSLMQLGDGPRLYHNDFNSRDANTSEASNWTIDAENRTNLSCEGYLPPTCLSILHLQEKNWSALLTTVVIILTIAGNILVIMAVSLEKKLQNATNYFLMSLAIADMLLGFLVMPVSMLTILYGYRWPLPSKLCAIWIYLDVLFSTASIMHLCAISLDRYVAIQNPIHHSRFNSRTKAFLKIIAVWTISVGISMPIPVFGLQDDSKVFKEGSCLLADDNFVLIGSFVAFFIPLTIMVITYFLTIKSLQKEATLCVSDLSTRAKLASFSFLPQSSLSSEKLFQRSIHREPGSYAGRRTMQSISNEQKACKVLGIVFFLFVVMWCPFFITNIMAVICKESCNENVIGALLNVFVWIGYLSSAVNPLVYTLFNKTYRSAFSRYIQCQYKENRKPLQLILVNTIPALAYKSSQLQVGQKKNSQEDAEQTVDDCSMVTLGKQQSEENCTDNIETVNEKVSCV
T1 sequence (P61169 whole entry): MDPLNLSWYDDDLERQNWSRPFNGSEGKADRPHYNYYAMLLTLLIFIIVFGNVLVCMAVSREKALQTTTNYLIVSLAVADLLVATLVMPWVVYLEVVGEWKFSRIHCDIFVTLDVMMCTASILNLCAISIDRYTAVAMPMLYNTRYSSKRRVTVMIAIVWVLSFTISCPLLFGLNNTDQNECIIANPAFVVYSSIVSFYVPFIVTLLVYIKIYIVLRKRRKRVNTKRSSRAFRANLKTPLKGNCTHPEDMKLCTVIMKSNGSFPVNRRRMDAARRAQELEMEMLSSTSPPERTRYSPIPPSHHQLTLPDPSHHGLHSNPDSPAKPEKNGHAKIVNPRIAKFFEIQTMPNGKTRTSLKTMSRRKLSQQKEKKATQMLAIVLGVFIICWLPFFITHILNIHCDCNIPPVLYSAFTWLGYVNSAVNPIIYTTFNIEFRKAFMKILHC

| Structure (SMILES) | Ki (adrenergic α1 receptor) [nM] | Ki (dopamine D2 receptor; [1]) [nM] | Ki (serotonin S2 receptor) [nM] | Ki (dopamine D2 receptor; Ki value, dopamine D2 receptor) [nM] |
| --- | --- | --- | --- | --- |
| CCN1CCN(c2cc(-c3ccccc3)c(OC)c(C(C)(C)O)c2)CC1 [Example 80] | > 1000 | 810 | 177 | – |
| CCN1CCN(c2cc(-c3ccccc3)c(OC)c(C(O)c3ccccn3)c2)CC1 (centres unmarked) [Example 112, 1-Ethyl-4-[3-phenyl-4-methoxy-5-(2-pyridyl)hydroxymethyl]phenylpiperazine] | > 1000 | 972 | 7 | – |
| CCN1CCN(c2cc(CO)c(OC)c(-c3ccccc3)c2)CC1 [Example 102, 1-Ethyl-4-(3-phenyl-4-methoxy-5-hydroxymethyl)phenylpiperazine] | 525 | > 1000 | > 1000 | – |
| CCC(F)c1cc(N2CCN(CCO)CC2)cc(-c2ccccc2C)c1Cl (centres unmarked) [Example 26, 1-(2-Hydroxyethyl)-4-[3-(2-tolyl)-4-chloro-5-(1-fluloropropyl)]phenylpiperazine] | > 1000 | 2.67 | 21.6 | – |
| CCN1CCN(c2cc(CCC(C)=O)c(OC)c(-c3ccccc3)c2)CC1 [Example 114, 1-Ethyl-4-[3-phenyl-4-methoxy-5-(2-acetylethyl)]phenylpiperazine] | 569 | 165 | 151 | – |
| CCS(=O)(=O)c1cc(N2CCN(CCc3ccncc3)CC2)cc(-c2ccc(F)cc2)c1OC [Example 201, 1-[2-(4-Pyridyl)ethyl]-4-[3-(4-fluorophenyl)-4-methoxy-5-ethanesulfonyl]phenylpiperazine] | 12.9 | 19.7 | 3.17 | – |
| CCN1CCN(c2cc(-c3ccccc3)c(OC)c(C(F)Cc3ccccn3)c2)CC1 (centres unmarked) [Example 99, 1-Ethyl-4-{3-phenyl-4-methoxy-5-[1-fluoro-2-(2-pyridyl)ethyl]}phenylpiperazine] | > 1000 | 2.93 | 170 | – |
| CCN1CCN(c2cc(NS(=O)(=O)CCCCl)c(Cl)c(-c3ccccc3C)c2)CC1 [Example 165] | > 1000 | 0.74 | 6.1 | – |
| CCC(F)c1cc(N2CCN(CC)CC2)cc(-c2ccccc2Cl)c1Cl (centres unmarked) [Example 24, 1-Ethyl-4-[3-(2-chlorophonyl)-4-chloro-5-(1-fluoropropyl)]phenylpiperazine] | 537 | 3.6 | 40.9 | – |
| CCCc1cc(-c2ccccc2)cc(N2CCN(CC)CC2)c1OC [Example 113, 1-Ethyl-4-(3-phenyl-5-propyl-6-methoxy)phenylpiperazine hyrochloroide] | 28.9 | 8.73 | 21.1 | – |
| CCN1CCN(c2cc(-c3ccccc3C)c(Cl)c(C(F)CC(C)C)c2)CC1 (centres unmarked) [Example 51, 1-Ethyl-4-[3-(2-tolyl)-4-chloro-5-(1-fluoro-3-methylbutyl)]phenylpiperazine] | > 1000 | 27.2 | 164 | – |
| CCN1CCN(c2cc(-c3ccccc3)c(OC)c(C(F)Cc3ccccc3)c2)CC1 (centres unmarked) [Example 96, 1-Ethyl-4-[3-phenyl-4-methoxy-5-(1-fluorophenethyl)]phenylpiperazine] | > 1000 | 1.33 | 35.3 | – |
| COc1c(C(=O)Cc2ccccc2)cc(N2CCN(Cc3ccccc3)CC2)cc1-c1ccccc1 [Example 126, 1-Benzyl-4-(3-phenyl-4-methoxy-5-phenylacetyl)phenylpiperazine] | > 1000 | 54.6 | 27.3 | – |
| CCc1ccccc1-c1cc(N2CCN(CCO)CC2)cc(C(F)CC)c1Cl (centres unmarked) [Example 218, 1-(2-Hydroxyethyl)-4-[3-(2-ethylphenyl)-4-chloro-5-(1-fluoropropyl)]phenylpiperazine] | – | 5.39 | 30.1 | – |
| CC[C@H](F)c1cc(N2CCN(C)CC2)cc(-c2ccccc2CF)c1Cl [Example 210, 1-Methyl-4-{3-(2-fluoromethylphenyl)-4-chloro-5-[1-(S)-fluoropropyl]}phenylpiperazine] | – | 16.1 | 6.25 | – |
| CCC(Cl)c1cc(N2CCN(CC)CC2)cc(-c2ccccc2Cl)c1Cl (centres unmarked) [Example 205, 1-Ethyl-4-[3-(2-chlorophenyl)-4-chloro-5-(1-chlorophenyl0phenylpiperazine)]phenylpiperazine] | – | 2.83 | 51.2 | – |
| CC[C@@H](F)c1cc(N2CCN(C)CC2)cc(-c2ccccc2CF)c1Cl [Example 209] | – | 3.9 | 42.7 | – |
| CC[C@@H](F)c1cc(N2CCN(CC)CC2)cc(-c2ccc(F)cc2C)c1Cl [Example 212, 1-Ethyl-4-{3-[2-(4-fluorotolyl)]-4-chloro-5-[1-(R)-fluorophenyl]}phenylpiperazine] | – | 3.9 | 1020 | – |
| CCC(F)c1cc(N2CCN(CC)CC2)cc(-c2c(C)cccc2C)c1Cl (centres unmarked) [Example 215, 1-Ethyl-4-[3-(2,6-xylyl)-4-chloro-5-(1-fluoropropyl)]phenylpiperazine] | – | 2.28 | 15.3 | – |
| CCS(=O)(=O)c1cc(N2CCN(CCF)CC2)cc(-c2ccc(F)cc2)c1OC [Example 203, 1-(2-Fluoroethyl)-4-[3-(4-fluorophenyl)-4-methoxy-5-ethanesulfonyl]phenylpiperazine] | – | – | 54.8 | – |
| CCc1ccccc1-c1cc(N2CCN(CC)CC2)cc(C(F)CC)c1Cl (centres unmarked) [Example 217, 1-Ethyl-4-[3-(2-ethylphenyl)-4-chloro-5-(1-fluoropropyl)]phenylpiperazine] | – | 3.57 | 25.5 | – |
| CC[C@@H](F)c1cc(N2CCN(CC)CC2)cc(-c2ccccc2C(F)(F)F)c1Cl [Example 216, 1-Ethyl-4-{3-(2-trifluoromethylphenyl)-4-chloro-5-[1-(R)-fluoropropyl]}phenylpiperazine] | – | 11.3 | 79 | – |
| CCC(F)c1cc(N2CCN(CCO)CC2)cc(-c2ccccc2Cl)c1Cl (centres unmarked) [Example 23, 1-(2-Hydroxyethyl)-4-[3-(2-chlorophenyl)-4-chloro-5-(1-fluoropropyl)]phenylpiperazine] | – | 7.22 | 51.2 | – |
| CCS(=O)(=O)c1cc(N2CCN(Cc3ccccn3)CC2)cc(-c2ccc(F)cc2)c1OC [Example 199, 1-(2-Pyridylmethyl)-4-[3-(4-fluorophenyl)-4-methoxy-5-ethanesulfonyl]phenylpiperazine] | – | 51.5 | 63.2 | – |
| CCN1CCN(c2cc(NS(=O)(=O)c3ccccc3)c(OC)c(-c3ccccc3)c2)CC1 [Example 120] | – | 0.36 | 17.4 | – |
| CCS(=O)(=O)c1cc(N2CCNCC2)cc(-c2ccc(F)cc2)c1OC [Example 202, 1-[3-(4-Fluorophenyl)-4-methoxy-5-ethanesulfonyl]phenylpiperazine] | – | – | 6.33 | 90.5 |
| CC[C@@H](F)c1cc(N2CCN(CCO)CC2)cc(-c2ccccc2C(F)(F)F)c1Cl [Example 219, 1-(2-Hydroxyethyl)-4-{3-(2-trifluoromethylphenyl)-4-chloro-5-[1-(R)-fluoropropyl]}phenylpiperazine] | – | 5.54 | 151 | – |
| C/C=C/c1cc(N2CCN(CC)CC2)cc(-c2ccccc2Cl)c1Cl [Example 204] | – | 14.4 | 187 | – |

— patent publication US6281214A, “Biphenyl derivatives” (Eisai Co., Ltd, priority 1994, dated 2001)
